Data reported in patent US10856562B2, “Flavor composition and edible compositions containing same” (MARS, INCORPORATED, priority 2013, dated 2020).
Square brackets hold non-standard residues; d marks the D form. Ends that are not written are not given here. pGlu = O=C1CC[C@@H](C(=O)O)N1

Test system: panelists
Experiment: Attribute perception scores of flavor enhancers in solution (Example 6)
Assay type: in vivo, human
Parameters: key to Metallic / Numbing / Atringent / Salt / Sweet / Sour / Bitter / Umami / Sour, mean evaluation score in solution / Numbing, mean evaluation score in solution / Astringent / Umami FF: 15-point intensity scale, 0 = none, 15 = very strong
Conditions: for Astringent / Bitter / Flinty/Mineral / Metallic / Numbing / Salt / Sour / Sweet / Umami / Umami FF / Atringent / Mineral/Flinty / Umami/brothy: solution
Procedure: Descriptive attributes (e.g., taste, flavor and chemical feeling factors) of three use levels of pGlu-Cys (FE-35), pGlu-Cys-Gly (FE-36), pGlu-Cys-Cys (FE-37), pGlu-Cys-Val (FE-38) and pGlu-Val-Cys (UE-30) flavor composition peptides were determined. The three use levels were as follows: 1.0 ppb, 10.0 ppb and 100.0 ppb.
Data was collected for the attributes of the product in-mouth for the use levels according to the following protocol: • The samples were analyzed for flavor by six to nine members of a panel, trained and experienced in flavor evaluation using the Spectrum™ method. Samples were evaluated across multiple panel sessions. • The strength of each attribute was rated on a 15-point scale, where 0=none and 15=very strong. • This scale incorporates the ability to use tenths of a point and therefore has the potential of 150 scale differentiations. • The scale may be expanded beyond 15 points to include extreme ratings if necessary.
A summary of the concentrations of NaCl, water and flavor composition peptides in the solution samples is described in table 24.
The panelists evaluated each sample for the attributes described by table 25.

[1] = 10.0 ppb, mean evaluation score
[2] = 100.0 ppb, mean evaluation score
[3] = Concentration 1, MAX, 15-point scale
[4] = Concentration 1, MEAN, 15-point scale
[5] = Concentration 1, MIN, 15-point scale
[6] = Concentration 10, MAX, 15-point scale
[7] = Concentration 10, MEAN, 15-point scale
[8] = Concentration 10, MIN, 15-point scale
[9] = Concentration 100, MAX, 15-point scale
[10] = Concentration 100, MEAN, 15-point scale
[11] = Concentration 100, MIN, 15-point scale

[pGlu]-Cys-Gly [FE-36]
2.1: Salt [2] | Salt [10]
0.0: Astringent (1.0 ppb, mean evaluation score) | Bitter (1.0 ppb, mean evaluation score) | Numbing (1.0 ppb, mean evaluation score) | Sour (1.0 ppb, mean evaluation score) | Astringent [1] | Bitter [1] | Metallic [1] | Numbing [1] | Sour [1] | Sweet [1] | Astringent [2] | Bitter [2] | Metallic [2] | Numbing [2] | Sour [2] | Sweet [2] | Umami [2] | Atringent [3] | Bitter [3] | Numbing [3] | Sour [3] | Atringent [4] | Bitter [4] | Numbing [4] | Sour [4] | Atringent [5] | Bitter [5] | Metallic [5] | Mineral/Flinty [5] | Numbing [5] | Sour [5] | Sweet [5] | Umami/brothy [5] | Atringent [6] | Bitter [6] | Metallic [6] | Numbing [6] | Sour [6] | Sweet [6] | Atringent [7] | Bitter [7] | Metallic [7] | Numbing [7] | Sour [7] | Sweet [7] | Atringent [8] | Bitter [8] | Metallic [8] | Mineral/Flinty [8] | Numbing [8] | Sour [8] | Sweet [8] | Umami [8] | Umami/brothy [8] | Atringent [9] | Bitter [9] | Metallic [9] | Numbing [9] | Sour [9] | Sweet [9] | Umami/brothy [9] | Atringent [10] | Bitter [10] | Metallic [10] | Numbing [10] | Sour [10] | Sweet [10] | Umami/brothy [10] | Atringent [11] | Bitter [11] | Metallic [11] | Mineral/Flinty [11] | Numbing [11] | Sour [11] | Sweet [11] | Umami/brothy [11]
0.1: Metallic (1.0 ppb, mean evaluation score) | Umami [1] | Metallic [4] | Umami/brothy [7]
1.0: Mineral/Flinty [3] | Sweet [3] | Umami/brothy [3] | Umami [5] | Mineral/Flinty [9]
2.3: Salt [6]
No distinct patterns are seen: Patterns of attributes in solution as concentrations increase (1.0 to 100 ppb)
0.5: Umami [11]
2.0: Umami [3] | Umami [6]
0.8: Flinty/Mineral [1] | Flinty/Mineral [2] | Metallic [3] | Umami/brothy [6] | Mineral/Flinty [7] | Mineral/Flinty [10]
1.9: Salt [1] | Salt [7]
2.5: Salt [5]
0.7: Flinty/Mineral (1.0 ppb, mean evaluation score) | Mineral/Flinty [4]
0.9: Umami FF [1] | Umami [7]
3.0: Salt [3] | Salt [9] | Umami [9]
1.5: Umami FF (1.0 ppb, mean evaluation score) | Umami [4] | Mineral/Flinty [6] | Salt [8] | Salt [11]
2.6: Salt (1.0 ppb, mean evaluation score) | Salt [4]
1.6: Umami FF [2] | Umami [10]
0.3: Umami (1.0 ppb, mean evaluation score) | Umami/brothy [4]
0.2: Sweet (1.0 ppb, mean evaluation score) | Sweet [4]
